Holding throughout (experiment): DTP human tumour cell line panel, 48 h
Experiment [1] relates to MDA-MB-435.
Experiment [2] has as its system TK-10 renal.
Experiment [3] concerns SK-MEL-28 melanoma.
Experiment [4] relates to HCT-15 colon.
The test system of experiment [5] is IGROV1 ovarian.
Experiment [6] has as its system K-562 leukemia.
In experiment [7] the test system is HL-60(TB) leukemia.
The test system of experiment [8] is OVCAR-8 ovarian.
The subject of experiment [9] is CCRF-CEM leukemia.
For experiment [10], the system named is HCC-2998 colon.
Experiment [11] relates to SNB-75 CNS.
Experiment [12] relates to SF-295 CNS.
The subject of experiment [13] is 786-0 renal.
The test system of experiment [14] is HS 578T breast.
The test system of experiment [15] is OVCAR-3 ovarian.
Experiment [16] relates to SK-MEL-2 melanoma.
The test system of experiment [17] is HT29 colon.
Experiment [18] deals with PC-3 prostate.
Experiment [19] concerns LOX IMVI melanoma.
Experiment [20] has as its system OVCAR-4 ovarian.

Molecules are shown by their SMILES.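 Test compounds were applied to cells in 96-well plates for 48 hours at 5 doses. TGI is the concentration that stops growth completely.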 Where a SMILES comes first, the peptide text is derived from it. The star is where a group is joined. Fmoc = O=C(OCC1c2ccccc2-c2ccccc21)*; Boc = CC(C)(C)OC(=O)*

For the molecule `COc1ccc(OC)c(CC2CCc3nc(N)nc(N)c3C2)c1` (stereo not given), the TGI in [1] was 54 µM; in experiment [2], more than 94 µM; in [3] it was more than 92.5 µM; in [4] it was more than 72.8 µM; in experiment [5], 28.1 µM; in [6], more than 100 µM. The TGI in experiment [7] was more than 100 µM; in experiment [8] it was more than 100 µM; in experiment [9], more than 100 µM; in experiment [10] it was more than 49.9 µM; in experiment [11], 27.2 µM; in experiment [12] it was 27.7 µM. The TGI in experiment [13] was 4.46 µM; in [14], more than 70.8 µM; in experiment [15], more than 100 µM; in [16] it was 43.6 µM; in experiment [17], more than 100 µM; in experiment [18] it was 52.7 µM. Besides, the TGI in experiment [19] is 25.6 µM; in [20] it was more than 100 µM.
In the case of `C/C(=C/C(=O)Nn1c(Cc2ccccc2)n[nH]c1=O)C(=O)O`, the TGI in experiment [1], in experiment [2], in experiment [3], in [4], in experiment [5] and in [6] was more than 100 µM each time. Besides, the TGI in experiment [7], in experiment [8], in [9], in experiment [10], in experiment [11] and in [12] was more than 100 µM each time. The total growth inhibition concentration (TGI) in experiment [13], in experiment [14], in experiment [15], in experiment [16], in [17] and in experiment [18] was more than 100 µM in each case. Besides, the TGI in experiment [19] and in experiment [20] was more than 100 µM throughout.
`CC(C)(C)OC(=O)NCCCCC(NC(=O)OCC1c2ccccc2-c2ccccc21)C(=O)N1CCCC1C(=O)NCC(N)=O` (stereo not drawn) (Fmoc-Lys(Boc)-Pro-Gly-NH2; configuration not given here): the TGI in experiment [1] is 84.8 µM; in [2], more than 100 µM; in experiment [3], more than 100 µM; in [4] it was 30.1 µM; in experiment [5], more than 100 µM; in experiment [6], more than 100 µM. Also, the TGI in experiment [7], in [8], in experiment [9], in experiment [10], in [11] and in [12] was more than 100 µM in each case. Moreover, the TGI was 34.3 µM in [13]; more than 100 µM in experiment [14]; more than 100 µM in [15]; more than 100 µM in [16]; more than 100 µM in experiment [17]; more than 100 µM in experiment [18]. Further, the figures for the TGI in experiment [19] and in experiment [20] were 40 µM and 44.6 µM, respectively.
With `COC(=O)C1CCC(=O)N1C(c1ccc(OC)cc1)c1ccc(OC)cc1` (stereo not given), the TGI in experiment [1], in [2], in [3], in [4], in [5] and in [6] was more than 100 µM in each case. For the same molecule, the TGI in experiment [7], in experiment [8], in experiment [9], in [10], in [11] and in experiment [12] was more than 100 µM each time. Further, the TGI in experiment [13], in [14], in experiment [15], in [16], in experiment [17] and in experiment [18] was more than 100 µM in each case. Moreover, the TGI in experiment [19] and in [20] was more than 100 µM in each case.
`Cc1noc2nnn(-c3ccc(Cl)cc3)c(=O)c12`: the TGI in experiment [1] was found to be 16.2 µM; in [2] it was 21.8 µM; in experiment [3], 25.5 µM; in [4], 10.3 µM; in experiment [5], 19.2 µM; in [6], 11.2 µM. In addition, the TGI in [7] amounted to 3.57 µM; in experiment [8] it was 29.8 µM; in [9], 2.48 µM; in experiment [10], 9.7 µM; in experiment [11], 7.47 µM; in [12] it was 27.8 µM. Also, the TGI in experiment [13] was 8.33 µM; in experiment [14], more than 60.3 µM; in experiment [15], 6.83 µM; in [16], 10.5 µM; in experiment [17], 17.2 µM; in [18] it was 19.2 µM. For the same molecule, the TGI is 11.4 µM in experiment [19] and 57.3 µM in [20].
With `CSc1ccc(NC(=S)NN(C)C)cc1`, the TGI in [1], in [2], in experiment [3], in [4], in experiment [5] and in [6] was more than 10 µM each time. In addition, the TGI in experiment [7], in [8], in [9], in experiment [10], in [11] and in experiment [12] was more than 10 µM in each case. The TGI in [13], in experiment [14], in experiment [15], in experiment [16], in [17] and in experiment [18] was more than 10 µM throughout. Besides, the TGI in experiment [19] and in [20] was more than 10 µM each time.
Consider `O=C1/C(=C/c2ccccc2O)N=C(c2ccccc2)N1c1nc2ccccc2s1`, for which the TGI is more than 100 µM in experiment [1]; 74.9 µM in experiment [2]; more than 100 µM in experiment [3]; 44.9 µM in [4]; more than 100 µM in [5]; more than 100 µM in [6]. Further, the TGI is 2.97 µM in experiment [7]; 72.6 µM in experiment [8]; more than 100 µM in experiment [9]; 35.4 µM in experiment [10]; 98.2 µM in [11]; 87.1 µM in experiment [12]. Also, the TGI in [13] amounted to 53.8 µM; in experiment [14] it was 58.4 µM; in [15], 54.3 µM; in [16] it was 43.4 µM; in experiment [17], 74 µM; in experiment [18], 43.8 µM. The TGI in [19] and in [20] was more than 100 µM each time.

A word on the TGI: it is the concentration at which net growth stops. Low readings indicate greater sensitivity of the cells, high ones lower sensitivity of the cells.

Source of the values: PubChem BioAssay (NCI).
